Assay results: patent US3953604A, “1-(2-Substituted-chromonyloxy)-2-hydroxy-3-(substituted phenoxy)propanes” (priority 1973, dated 1976)
Where “and” joins values, the source holds several entries; their conditions need not be identical. Equal entries are not always repeated. Structures can show the parent of a compound that is named as a salt.

Columns and labels:
[1] = tested on: passive cutaneous anaphylaxis; assay: passive cutaneous anaphylaxis test (PCA), egg albumin as the antigen: antiallergic activity; assay type: in vivo; conditions: iv; rat; injected intravenously together with the antigen; at least 3 groups of 5 rats; read-out: ID50 (dose which reduced the diameter of the wheel by 50%)
Procedure: Compounds representative of the above examples were evaluated for antiallergic activity in the rat by the passive cutaneous anaphylaxis test (hereafter PCA), utilizing egg albumin as the antigen.
(§1) The intensity of such PCA reaction is assessed by measuring the diameters of wheals which develop in the skin of the test animal. Details of the PCA test can be found in the following references: I. Motar, Life Sciences, 1:465 (1963); and B. Ogilvie, Immunology, 12:113 (1967).
In the following table, ID50 is the dose which reduced the diameter of the wheel by 50% when injected intravenously together with the antigen. At least 3 groups of 5 rats were used to determine the ID50 for each compound tested. The reference compound utilized was disodium chromoglycate (DSCG). The test compounds are identified by their respective Example Numbers above.

[2] = tested on: passive cutaneous anaphylaxis; assay: duration of antiallergic activity by the PCA test, compared directly with DSCG; assay type: in vivo; conditions: rat; for Mean Reaction Diameters in Milimeters After 25 μ moles/kg of Test Compound: 25 μ moles/kg test compound 10 minutes before egg albumin antigen, groups of 10 animals
Procedure: as §1
The duration of antiallergic activity of compounds representative of the above examples was also determined by the PCA test described in Example 66. In each case, 25 μ moles of the test compound were administered 10 minutes before injection of the egg albumin antigen in rats. The following table reports the mean reactions diameters of wheals in milimeters for the compounds described in the above Examples and disodium cromoglycate (DSCG). In order to achieve maxium significance of results, the effect of each compound was compared directly with DSCG using groups of 10 animals selected at random from the same population.

[3] = acute toxicity tests, intravenous, animals observed for one week; conditions: in vivo, rat, dose is the maximum possible, limited by solubility, read-out: Therapeutic Ratio (Dose/ID50)
Procedure: Acute toxicity of compounds representative of the above Examples was determined in rats. The test compounds were administered intravenously in either 40 ml/kg of physiological saline or […] and saline. Compounds which are insoluble in saline were administered in […] and saline. Doses administered represent the maximun dose possible and are limited by solubility factors. ID50 in the table is used as defined in Example 66. Test compounds are identified by their respective Example Number, above.

[4] = tested on: allergic bronchial asthma; conditions: in vivo; cited from earlier work

O=C(O)c1cc(=O)c2c(OCC(O)COc3ccc(Br)cc3)cccc2o1 (centres unmarked) [Example 8, 1-(2-Carboxychromon-5-yloxy)-2-Hydroxy-3-p-Bromophenoxypropane Sodium Salt]
ED50 [1]: 6.5 µmol/kg
Mean Reaction Diameters in Milimeters After 25 μ moles/kg of Test Compound [2]: 6.4 ± 0.4 Milimeters
selectivity ratio at 168 h [3]: > 40

CC(=O)c1c(O)cccc1OCC(O)COc1cccc(C(F)(F)F)c1 (centres unmarked) [Example 57, 1-(2-Acetyl-3-hydroxphenoxy)-2-Hydroxy-3-(m-trifluoromethylphenoxy) propane]
Mean Reaction Diameters in Milimeters After 25 μ moles/kg of Test Compound [2]: 8.4 ± 0.5 Milimeters

O=C(O)c1cc(=O)c2c(OCC(O)COc3ccc(F)cc3)cccc2o1 (centres unmarked) [Example 65, 1-(2-Carboxychromon-5-yloxy)-2-Hydroxy-3-(p-fluorophenoxy)propane Sodium Salt]
Mean Reaction Diameters in Milimeters After 25 μ moles/kg of Test Compound [2]: 12.2 ± 0.2 Milimeters

COc1ccc(OCC(O)COc2cccc3oc(C(=O)O)cc(=O)c23)cc1 (centres unmarked) [Example 15, 1-(2-Carboxychromon-5-yloxy)-2-Hydroxy-3-p-Methoxyphenoxypropane Sodium Salt]
ED50 [1]: 20 µmol/kg
Mean Reaction Diameters in Milimeters After 25 μ moles/kg of Test Compound [2]: 11.0 ± 0.5 Milimeters
selectivity ratio at 168 h [3]: > 62

N#Cc1ccc(OCC(O)COc2cccc3oc(C(=O)O)cc(=O)c23)cc1 (centres unmarked) [Example 35, 1-(2-Carboxychromon-5-yloxy)-2-Hydroxy-3-p-Cyanophenoxypropane Sodium Salt]
ED50 [1]: 0.75 µmol/kg
Mean Reaction Diameters in Milimeters After 25 μ moles/kg of Test Compound [2]: 8.9 ± 0.7 Milimeters
selectivity ratio at 168 h [3]: > 3170

O=C(O)c1cc(=O)c2c(OCC(O)COc3ccc(Cl)cc3)cccc2o1 (centres unmarked) [Example 11, 1-(2-Carboxychromon-5-yloxy)-2-Hydroxy-3-p-Chlorophenoxypropane]
ED50 [1]: 5.5 µmol/kg
Mean Reaction Diameters in Milimeters After 25 μ moles/kg of Test Compound [2]: 2.8 ± 0.4 Milimeters
selectivity ratio at 168 h [3]: > 43

CCOC(=O)c1ccc(OCC(O)COc2cccc3oc(C(=O)O)cc(=O)c23)cc1 (centres unmarked) [Example 44, 1-(2-Carboxychromon-5-yloxy)-2-Hydroxy-3-p-Carbethoxyphenoxypropane Sodium Salt]
ED50 [1]: 8.25 µmol/kg
Mean Reaction Diameters in Milimeters After 25 μ moles/kg of Test Compound [2]: 6.1 ± 0.4 Milimeters

O=C(O)c1cc(=O)c2c(OCC(O)COc3ccc([N+](=O)[O-])cc3)cccc2o1 (centres unmarked) [Example 38, 1-(2-Carboxychromon-5-yloxy)-2-Hydroxy-3-p-Nitrophenoxypropane Sodium Salt]
ED50 [1]: 3.6 µmol/kg
Mean Reaction Diameters in Milimeters After 25 μ moles/kg of Test Compound [2]: 11.2 ± 0.3 Milimeters
selectivity ratio at 168 h [3]: > 173

O=C(O)c1cc(=O)c2ccc(OCC(O)COc3ccccc3)cc2o1 (centres unmarked) [Example 41, 1-(2-Carboxychromon-7-yloxy)-2-Hydroxy-3-Phenoxypropane Sodium Salt]
ED50 [1]: 14 µmol/kg

O=C(O)c1cc(=O)c2c(OCC(O)COc3cccc4oc(C(=O)O)cc(=O)c34)cccc2o1 [DSCG, 1,3-di(2-carboxy-4-oxochromon-5-yloxy)-2-hydroxy-propane disodium salt, reference compound]
Mean Reaction Diameters in Milimeters After 25 μ moles/kg of DSCG ([2]; 25 μ moles/kg DSCG 10 minutes before egg albumin antigen, direct comparison with the test compound of the same line, disodium salt): 13.4 ± 0.3 Milimeters and 10.6 ± 0.7 Milimeters and 9.7 ± 0.3 Milimeters and 8.9 ± 0.8 Milimeters and 8.6 ± 0.3 Milimeters and 12.3 ± 0.2 Milimeters
selectivity ratio at 168 h [3]: > 1150
untoward side effects [4]: several untoward side effects

O=C(O)c1cc(=O)c2c(OCC(O)COc3ccc(Cl)cc3Cl)cccc2o1 (centres unmarked) [Example 62, 1-(2-Carboxychromon-5-yloxy)-2-Hydroxy-3-(2,4-dichlorophenoxy) propane Sodium Salt]
Mean Reaction Diameters in Milimeters After 25 μ moles/kg of Test Compound [2]: 1.3 ± 0.5 Milimeters

Cc1ccccc1OCC(O)COc1cccc2oc(C(=O)O)cc(=O)c12 (centres unmarked) [Example 19, 1-(2-Carboxychromon-5-yloxy)-2-Hydroxy-3-o-Cresyloxypropane Sodium Salt]
ED50 [1]: 7 µmol/kg
Mean Reaction Diameters in Milimeters After 25 μ moles/kg of Test Compound [2]: 10.3 ± 0.2 Milimeters
selectivity ratio at 168 h [3]: > 281

CCOC(=O)c1cc(=O)c2c(OCC(O)COc3ccc(C#N)cc3)cccc2o1 (centres unmarked) [Example 34, 1-(2-Carbethoxychromon-5-yloxy)-2-Hydroxy-3-p-Cyanophenoxypropane]
ED50 [1]: 2.5 µmol/kg
selectivity ratio at 168 h [3]: > 84

O=C(O)c1cc(=O)c2c(OCC(O)COc3ccccc3)cccc2o1 (centres unmarked) [Example 4, 1-(2-Carboxychromon-5-yloxy)-2-Hydroxy-3-Phenoxypropane Sodium Salt]
ED50 [1]: 6.25 µmol/kg
Mean Reaction Diameters in Milimeters After 25 μ moles/kg of Test Compound [2]: 13.0 ± 0.3 Milimeters
selectivity ratio at 168 h [3]: > 339
